In patent US20080085889A1, “Amidomethyl-Substituted 1-(Carboxyalkyl) Cyclopentyl-Carbonylamino-Benzazepine-N-Acetic Acid Compounds, Process and Intermediate Products for Their Preparation and Pharmaceutical Compositions Containing Them” (SOLVAY PHARMACEUTICALS GmbH, priority 2003, published 2008):

Assays:
[1] = target: T1, soluble, human recombinant NEP (Homo sapiens, UniProt P08473); assay: In-vitro investigation of the NEP inhibitory action (fluorescence-quenched Big-ET-1 analogue, HPLC); type: biochemical
T1 construct: soluble, human recombinant NEP; purchased Prof; Crine, University of Montreal, Canada
T1 sequence (P08473 52-750 limits assumed): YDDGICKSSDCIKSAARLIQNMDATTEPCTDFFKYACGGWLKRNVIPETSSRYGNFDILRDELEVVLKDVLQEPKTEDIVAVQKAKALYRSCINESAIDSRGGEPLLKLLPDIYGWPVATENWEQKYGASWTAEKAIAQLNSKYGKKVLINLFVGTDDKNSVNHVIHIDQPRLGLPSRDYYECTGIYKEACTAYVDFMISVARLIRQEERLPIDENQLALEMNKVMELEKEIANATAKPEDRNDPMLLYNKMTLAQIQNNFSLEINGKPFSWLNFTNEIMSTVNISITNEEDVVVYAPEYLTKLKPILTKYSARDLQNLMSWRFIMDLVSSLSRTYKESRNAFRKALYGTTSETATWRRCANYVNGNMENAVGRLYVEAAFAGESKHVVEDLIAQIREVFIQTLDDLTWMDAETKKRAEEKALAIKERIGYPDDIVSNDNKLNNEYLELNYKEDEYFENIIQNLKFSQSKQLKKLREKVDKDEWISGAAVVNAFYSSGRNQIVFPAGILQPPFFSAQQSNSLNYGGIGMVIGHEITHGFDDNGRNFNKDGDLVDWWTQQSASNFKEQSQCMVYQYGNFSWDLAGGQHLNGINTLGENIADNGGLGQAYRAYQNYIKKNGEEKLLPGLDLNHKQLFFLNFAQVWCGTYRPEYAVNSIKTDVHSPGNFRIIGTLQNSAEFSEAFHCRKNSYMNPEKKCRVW
Description: 1. In-Vitro Investigation of the NEP Inhibitory Action of the Substances
In this test, the measure of the inhibitory activity of the substances which was determined was their IC50 value. The IC50 value of a test substance having enzyme-inhibitory activity is that concentration of the test substance at which 50% of the enzymatic activity of the NEP is blocked.
70 μl test buffer, 10 μl enzyme working solution and 10 μl test substance solution were mixed in an Eppendorf vessel and preincubated at 37° C. for 15 minutes (=min.). Then 10 μl substrate stock solution was added and the test batch was incubated for 60 minutes at 37° C. The enzymatic reaction was then ended by 5-minutes' heating to 95° C. After centrifugation (Heraeus Biofuge B, 3 min.), the liquid supernatant was investigated by HPLC in accordance with the following specifications.
The substrate was separated from cleavage products by means of reversed-phase HPLC (CC 125/4 Nucleosil 300/5 C18 RP column with CC 8/4 Nucleosil 100/5 C18 precolumn, from Macherey-Nagel, Düren, Germany). For this, 60 μl of the test mixture was injected into the HPLC sample injection point and the column was then eluted at a flow rate of 1 ml/min with the following gradient:
Mobile Phase B: 100% acetonitrile+0.5M H3PO4
All the peptides were detected by absorption at 214 nm and by fluorescence with an excitation wavelength of 328 nm and an emission wavelength of 393 nm.
Upon enzymatic cleavage of the peptide, the fluorophore (=Mca) and the quencher end up in different peptide fragments, which reduces the effectiveness of the quench. […] The increasing fluorescence signal (corresponds to the area, A) of the HPLC peak of the peptide with the non-quenched Mca fluorophore is used for the further calculations. This signal was compared for samples with (=Ainhib) and without (=Acontrol) test substance of Formula I, and the value “% inhibition” was calculated on the basis of the respective peak areas according to the following formula: % inhibition=100*(1−Ainhib/Acontrol)
All the samples were measured in duplicates and average values were calculated therefrom. A standard inhibitor (10 nM thiorphan) and a solvent control (0.1% DMSO) were likewise measured as quality controls on each run. In this test model the test substances of Formula I listed in the following Table 1 had the IC50 values given below: […]

[2] = test system: formation of ET-1 from Big-ET-1; assay: In vivo inhibition of the Big-ET-1-induced blood pressure increase in anaesthetised rats, i.v. single dose; design: species or system Rats (Sprague-Dawley); settings: Rattus norvegicus, iv, 5 min before 0.5 nmol/kg Big-ET-1, negative values indicate inhibition, read-out: % substance-related inhibition of the maximum Big-ET effect on SAP vs. control; for change in vivo at 10 µmol/kg: 10 μmol/kg; for change in vivo at 3 µmol/kg: 3 μmol/kg
Source text: 3. In Vivo Investigation of the Inhibitory Action of the Substances on the Formation of ET-1 from Big-ET-1 in Rats
ET-1 is an endogenous substance with strong vasoconstrictive effect. An increase in the ET-1 level results in an increase in blood pressure. Upon infusion of Big-ET-1, an increase in blood pressure takes place to the extent that ET-1 is produced therefrom by enzyme-catalysed cleavage of Big-ET-1. As a measurement of the enzyme-inhibiting action of the substances, their inhibitory action on the increase in blood pressure induced by infusion of Big-ET-1 was determined.
Rats (Sprague-Dawley, CRLD=Charles River) were anaesthetised with 1 ml/kg Rompun/Ketavet 1:1. A pressure transducer (Statham) was inserted into the carotid artery to measure blood pressure. One jugular vein was cannulated for administering the substance, and the other for administering Big-ET-1. After a 20-minute equilibration phase, the rats were administered the corresponding test substance of Formula I at a dose of as a rule 10 μmol/kg (if not stated otherwise), or a vehicle. Five minutes later, 0.5 nmol/kg Big-ET-1 was infused over a period of one minute. The systolic (SAP=systolic arterial pressure) and the diastolic (DAP=diastolic arterial pressure) blood pressure and the heart rate were each measured before administration of the substance, then immediately before administration of Big-ET and in each case every five minutes over a period of 30 minutes after Big-ET administration using the pressure transducer in known manner. The maximum Big-ET-induced increase in blood pressure and the maximum lowering of heart rate were calculated from the measured values as the difference between the value measured at the moment of maximum development of the Big-ET action (typically after 5 min.) and the value measured before Big-ET infusion. Furthermore, the integral of the blood pressure curve under the influence of Big-ET-1 was determined over 30 minutes (AUC=area under the curve).
The percentage inhibition of the maximum Big-ET-1 effect on the systolic arterial blood pressure (SAP) after i.v. administration of the test substances compared with administration of a vehicle is set forth in the following Table 3a:
Data given in table 3a as negative values indicate an inhibitory effect.

[3] = target: T2, His6-tagged hSEP ectodomain (Homo sapiens, UniProt Q495T6); assay: In vitro investigation of the hSEP-inhibitory action (fluorescence-quenched Big-ET-1 analogue, HPLC); type: biochemical
T2 construct: His6-tagged hSEP ectodomain; His6; purchased Innogenetics, Ghent, Belgium
T2 sequence (Q495T6 49-779 limits assumed): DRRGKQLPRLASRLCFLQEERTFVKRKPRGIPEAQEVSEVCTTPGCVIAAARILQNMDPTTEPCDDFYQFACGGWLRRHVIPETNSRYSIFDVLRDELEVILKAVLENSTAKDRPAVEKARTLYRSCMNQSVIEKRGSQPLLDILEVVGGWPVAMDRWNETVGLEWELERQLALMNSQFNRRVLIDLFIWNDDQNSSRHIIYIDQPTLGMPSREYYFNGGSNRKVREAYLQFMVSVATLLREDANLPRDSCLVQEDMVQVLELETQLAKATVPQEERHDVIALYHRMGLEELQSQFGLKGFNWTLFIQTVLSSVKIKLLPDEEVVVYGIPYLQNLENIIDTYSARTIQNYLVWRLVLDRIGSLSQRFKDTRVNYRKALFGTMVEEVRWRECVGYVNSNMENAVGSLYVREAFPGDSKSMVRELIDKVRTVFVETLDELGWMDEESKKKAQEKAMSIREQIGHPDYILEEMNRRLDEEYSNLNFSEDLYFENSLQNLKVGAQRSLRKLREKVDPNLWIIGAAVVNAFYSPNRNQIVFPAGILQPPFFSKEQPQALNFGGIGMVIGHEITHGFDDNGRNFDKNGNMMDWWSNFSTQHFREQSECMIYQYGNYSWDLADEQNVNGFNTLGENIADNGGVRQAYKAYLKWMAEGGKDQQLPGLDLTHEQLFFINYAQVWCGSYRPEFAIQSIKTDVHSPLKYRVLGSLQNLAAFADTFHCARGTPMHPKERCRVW
Description: 2. In Vitro Investigation of the hSEP-Inhibitory Action of the Substances
In this test, the measure of the inhibitory activity of the substances which was determined was their IC50 value. The IC50 value of a test substance having enzyme-inhibitory activity is that concentration of the test substance at which 50% of the enzymatic activity of the hSEP is blocked.
The test and the HPLC procedure were carried out analogously to the manner set forth above for determining the in vitro inhibitory action of the test substances on NEP. 10 nM phosphoramidon served as standard inhibitor in the HPLC procedure. In this test model the test substances of Formula I listed in the following Table 2 had the IC50 values given below: […]

Row | SMILES | IC50 [1] [nM] | IC50 [3] [nM] | change in vivo at 10 µmol/kg [2] [%] | change in vivo at 3 µmol/kg [2] [%]
1 | O=C(O)CN1C(=O)[C@@H](NC(=O)C2(CC(CC(=O)NCc3ccccc3)C(=O)O)CCCC2)CCc2ccccc21 (mixture of isomers) [Example 27] | 7.8 | 26.8 |  | 
2 | CC(C)N(C)C(=O)CC(CC1(C(=O)NC2CCc3ccccc3N(CC(=O)O)C2=O)CCCC1)C(=O)O (racemic) [Example 32, 2-{[1-({[1-(carboxymethyl)-2-oxo-2,3,4,5-tetrahydro-1H-1-benzazepin-3-yl]amino}carbonyl)cyclopentyl]methyl}-4-[isopropyl(methyl)amino]-4-oxobutanoic acid] | 13.8 |  | -60 | 
3 | CN(C)C(=O)CC(CC1(C(=O)NC2CCc3ccccc3N(CC(=O)O)C2=O)CCCC1)C(=O)O (racemic) [Example 54, 2-{[1-({[1-(carboxymethyl)-2-oxo-2,3,4,5-tetrahydro-1H-1-benzazepin-3-yl]amino}carbonyl)cyclopentyl]methyl}-4-(dimethylamino)-4-oxobutanoic acid] |  |  | -87 | 
4 | CN(C)CCCN(C)C(=O)CC(CC1(C(=O)NC2CCc3ccccc3N(CC(=O)O)C2=O)CCCC1)C(=O)O (racemic) [Example 60, 2-[(1-{[1-(carboxymethyl)-2-oxo-2,3,4,5-tetrahydro-1H-1-benzazepin-3-yl]carbamoyl}cyclopentyl)methyl]-4-{[3-(dimethylamino)propyl](methyl)amino}-4-oxobutanoic acid] |  |  | -70 | 
5 | CNCCCN(C)C(=O)CC(CC1(C(=O)NC2CCc3ccccc3N(CC(=O)O)C2=O)CCCC1)C(=O)O (racemic) [Example 77, 2-{[1-({[1-(carboxymethyl)-2-oxo-2,3,4,5-tetrahydro-1H-1-benzazepin-3-yl]amino}carbonyl)cyclopentyl]methyl}-4-{methyl[3-(methylamino)propyl]amino}-4-oxobutanoic acid] |  |  |  | -56
6 | O=C(O)CN1C(=O)[C@@H](NC(=O)C2(CC(CC(=O)N3CCOCC3)C(=O)O)CCCC2)CCc2ccccc21 (single isomer, unassigned) [Example 19] | 18.2 | 9.5 |  | 
7 | COc1ccccc1CNC(=O)CC(CC1(C(=O)N[C@H]2CCc3ccccc3N(CC(=O)O)C2=O)CCCC1)C(=O)O (single isomer, unassigned) [Example 31] | 4 | 12.3 |  | 
8 | CC(C)NC(=O)CC(CC1(C(=O)N[C@H]2CCc3ccccc3N(CC(=O)O)C2=O)CCCC1)C(=O)OCc1ccc(Cl)cc1 (stereo partly drawn) [Example 14, {(3S)-3-[({1-[2-{[(4-chlorobenzyl)oxy]carbonyl}-4-(isopropylamino)-4-oxobutyl]-cyclopentyl}carbonyl)amino]-2-oxo-2,3,4,5-tetrahydro-1H-1-benzazepin-1-yl}acetic acid] |  |  |  | -59
9 | CC(C)[C@H](N)C(=O)OC1CCN(C(=O)CC(CC2(C(=O)N[C@H]3CCc4ccccc4N(CC(=O)O)C3=O)CCCC2)C(=O)O)CC1 (stereo partly drawn) [Example 70, 2-{[1-({[1-(carboxymethyl)-2-oxo-2,3,4,5-tetrahydro-1H-1-benzazepin-3-yl]amino}carbonyl)cyclopentyl]methyl}-4-oxo-4-[4-(L-valyloxy)piperidin-1-yl]butanoic acid] |  |  | -77 | 

Second part, led by results:

Row | IC50 [1] [nM] | IC50 [3] [nM] | SMILES | change in vivo at 10 µmol/kg [2] [%] | change in vivo at 3 µmol/kg [2] [%]
10 | 16.9 |  | CC(=O)CC(C)(C)NC(=O)CC(CC1(C(=O)N[C@H]2CCc3ccccc3N(CC(=O)O)C2=O)CCCC1)C(=O)O (mixture of isomers) [Example 21] | -43 | 
11 |  | 11.9 | CNC(=O)CC(CC1(C(=O)N[C@H]2CCc3ccccc3N(CC(=O)O)C2=O)CCCC1)C(=O)O (mixture of isomers) [Example 28] |  | 
12 | 3.2 | 2.9 | CN(CCO)C(=O)CC(CC1(C(=O)NC2CCc3ccccc3N(CC(=O)O)C2=O)CCCC1)C(=O)O (racemic) [Example 43, 2-{[1-({[1-(carboxymethyl)-2-oxo-2,3,4,5-tetrahydro-1H-1-benzazepin-3-yl]amino}carbonyl)cyclopentyl]methyl}-4-[(2-hydroxyethyl)(methyl)amino]-4-oxobutanoic acid] |  | 
13 |  | 2.5 | CN(CCCO)C(=O)CC(CC1(C(=O)NC2CCc3ccccc3N(CC(=O)O)C2=O)CCCC1)C(=O)O (racemic) [Example 56, 2-{[1-({[1-(carboxymethyl)-2-oxo-2,3,4,5-tetrahydro-1H-1-benzazepin-3-yl]amino}carbonyl)cyclopentyl]methyl}-4-[(3-hydroxypropyl)(methyl)amino]-4-oxobutanoic acid] |  | 
14 | 37 | 25.3 | O=C(O)CN1C(=O)[C@@H](NC(=O)C2(CC(CC(=O)NCCCO)C(=O)O)CCCC2)CCc2ccccc21 (stereo in doubt) [Example 10, (2″rel1″)-2-{[1-({[(3S)-1-(carboxymethyl)-2-oxo-2,3,4,5-tetrahydro-1H-1-benzazepin-3-yl]amino}carbonyl)cyclopentyl]methyl}-4-[(3-hydroxypropyl)amino]-4-oxobutyric acid] |  | 
15 |  | 21.4 | CC(C)NC(=O)CC(CC1(C(=O)N[C@H]2CCc3ccccc3N(CC(=O)O)C2=O)CCCC1)C(=O)O (stereo partly drawn) [Example 2, 2-{[(3S)-1-({[1-(carboxymethyl)-2-oxo-2,3,4,5-tetrahydro-1H-1-benzazepin-3-yl]amino}-carbonyl)cyclopentyl]methyl}-4-(isopropylamino)-4-oxobutyric acid] | -53 | 
